Measured values as given in patent publication US5830994A, “Peptide derivatives of alpha-MSH and their application” (Institut Europeen De Biologie Cellulaire, priority 1993, dated 1998).

Test system: Interleukin-1α
Assay: Inhibition of the synthesis of Interleukin 1 (IL1α) induced by LPS in mice, serum ELISA
Assay type: in vivo, BALB/C mice
Protocol: Study of the immunosuppressive activity of the derivative compound 4 on the inhibition of the synthesis of Interleukin 1 "IL1" in mice.
The secretion of IL1 is induced by the parenteral administration of lipopolysaccharides "LPS" to BALB/C mice.
Compound 4 (P-IV) is dissolved in physiological saline. It is assayed quantitatively by spectrophotometry at 280 nm (assay of Tryptophan) which allows an accurate assay of "P-IV" in the solutions which are stored at -25° C.
Extracts of Escherichia Coli serotype 0127 - B8 -"Ref. SIGMA - L3137" are used at the concentration of 6 mg/ml in physiological saline.
BALB/C mice--females--5 weeks old, obtained from IFFA - CREDO subjected to a photoperiod of 12 hours of light per 24 hours water and feed ad libitum
the other based on a single treatment, consequently much more rapid, will serve for the control of the PIV activity ("DAYNES" technique).
The animals in the control batches receive an injection of 0.2 ml of physiological saline subcutaneously, the animals in the PIV batches receive an injection of the product at various dosages subcutaneously. This treatment takes place for 5 days.
Forty-eight hours after the treatment with PIV, a sublethal dose of LPS (1.2 mg in 0.2 ml of physiological saline) is injected intraperitoneally into each animal in the PIV batches and in the positive control batch.
One hundred and eighty minutes later, all the mice were punctured through the retroorbital sinuses on dry tubes. As soon as the blood coagulates, the clot is detached. The blood is centrifuged for 10 minutes at 1800 g at a temperature of 10° C.
40 μg of PIV in 0.2 ml of physiological saline--that is to say 200 μg/ml
25 Ag of PIV in 0.2 ml of physiological saline--that is to say 125 μg/ml
10 μg of PIV in 0.2 ml of physiological saline--that is to say 50 μg/ml
The animals in the control batches receive an injection of 0.2 ml of physiological saline intravenously.
The animals in the PIV batches receive an injection of the product at various dosages intravenously. (Caudal vein)
Immediately afterwards, a sublethal dose of LPS (1.2 mg years [sic] 0.2 ml of physiological saline) is injected intraperitoneally into each animal in the PIV batches and into the positive control batches.
One hundred and eighty minutes later, all the mice are punctured through the retroorbital sinuses on dry tubes. As soon as the blood coagulates, the clot is detached. The blood is centrifuged for 10 minutes at 1800 g at a temperature of 10° C. The sera once collected are frozen at -25° C.
The Interleukin-1α contained in these sera is assayed 24 hours after the sampling with the murine IL1α ELISA assay Kit (ref. 1900 GENZYME)
Rapid description of the Kit: the method used for this assay is of the sandwich type.
A first anti-murine IL1α monoclonal antibody is used
The samples are then deposited, then a second biotinylated anti-IL1α antibody is caused to react.
The coloured reaction uses tetramethylbenzidine (TMB)
The reading is made at 450 nm on a MULTISKAN MCC 340 MKII (TITERTEK) plate reader.

“[(DL) Lip] His - D.homoPhe - Arg - Trp - NH2 [PIV]” was tested, and the “mean decreases in IL1α” value (50 μg/ml, five studies) was 50%, the “mean decreases in IL1α” value (125 μg/ml, five studies) was 50% and the “mean decreases in IL1α” value (200 μg/ml, five studies) was 60%. The “mean decreases in IL1α” value (all dosages, all the five studies) was ~55% and the “decrease in the synthesis of Interleukin-1α relative to the control” value (with the two methodologies used (SHEEHAN and DAYNES)) was “at least 50%”.
